Here are results for five compounds from US9908859B2, “Lysine demethylase inhibitors for myeloproliferative disorders” (Oryzon Genomics S.A., priority 2011, dated 2018).

One test relates to platelets. Briefly: Platelet levels in mice after 5 consecutive once daily injections. The test is classed as in vivo, mice (Hsd:Athymic Nude-Foxn1nu). Conditions: 60 min after last dose. Here is the method:
On the fifth day, 60 min after the administration, mice were sacrificed and blood was collected in sodium citrate-containing tubes for haemogram analysis. Platelet levels were determined and referred as % of platelets compared with the levels found in mice treated with vehicle. Platelet levels were determined in a standard hematology analyzer (Abacus Junior Vet, from Diatron) following the manufacturer's instructions.
20% 2-hydroxypropyl-β-cyclodextrin in H2O was used as a vehicle. When necessary, 10% DMSO was also added in the vehicle. Each day, compounds were administered in a single intraperitoneal injection with administration volumes of 15 ml/kg.
Mice strain was Hsd:Athymic Nude-Foxn1nu. Animals were maintained in air and temperature controlled cages with regular supply of water and food.

For test [1], the target named is T1, Human recombinant monoamine oxidase MAO-A (Homo sapiens, UniProt P21397).
T1 construct: purchased Sigma Aldrich
T1 sequence (P21397 1-527): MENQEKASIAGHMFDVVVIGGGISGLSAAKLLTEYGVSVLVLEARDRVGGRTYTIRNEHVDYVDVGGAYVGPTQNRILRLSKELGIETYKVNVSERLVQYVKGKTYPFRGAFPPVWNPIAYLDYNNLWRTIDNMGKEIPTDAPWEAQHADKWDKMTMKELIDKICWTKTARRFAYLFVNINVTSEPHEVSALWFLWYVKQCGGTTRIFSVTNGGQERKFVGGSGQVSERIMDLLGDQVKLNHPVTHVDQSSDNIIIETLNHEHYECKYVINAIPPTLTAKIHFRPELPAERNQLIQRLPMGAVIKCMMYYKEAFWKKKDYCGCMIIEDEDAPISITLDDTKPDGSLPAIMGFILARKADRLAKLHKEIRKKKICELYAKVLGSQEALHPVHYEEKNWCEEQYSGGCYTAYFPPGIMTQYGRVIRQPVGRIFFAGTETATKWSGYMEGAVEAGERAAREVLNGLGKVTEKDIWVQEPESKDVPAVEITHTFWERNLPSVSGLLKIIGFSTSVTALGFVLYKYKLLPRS
In words: MAO-A inhibition, kynuramine fluorescence assay. The format is biochemical. The text has this: (§1) Human recombinant monoamine oxidase proteins MAO-A and MAO-B were purchased from Sigma Aldrich. MAOs catalyze the oxidative deamination of primary, secondary and tertiary amines. In order to monitor MAO enzymatic activities and/or their inhibition rate by inhibitor(s) of interest, a fluorescent-based (inhibitor)-screening assay was set up. 3-(2-Aminophenyl)-3-oxopropanamine (kynuramine dihydrobromide, Sigma Aldrich), a non fluorescent compound was chosen as a substrate. Kynuramine is a non-specific substrate for both MAOs activities. While undergoing oxidative deamination by MAO activities, kynuramine is converted into 4-hydroxyquinoline (4-HQ), a resulting fluorescent product.
(§2) The monoamine oxidase activity was estimated by measuring the conversion of kynuramine into 4-hydroxyquinoline. […]
(§3) After leaving the enzyme(s) interacting with the inhibitor, 60 to 90 μM of kynuramine was added to each reaction for MAO-B and MAO-A assay respectively, and the reaction was left for 1 hour at 37° C. in the dark. […] The conversion of kynuramine to 4-hydroxyquinoline, was monitored by fluorescence (excitation at 320 nm, emission at 360 nm) using a microplate reader (Infinite 200, Tecan). Arbitrary units were used to measure levels of fluorescence produced in the absence and/or in the presence of inhibitor.
(§4) The Ki (IC50) of each inhibitor was determined at Vmax/2.

The subject of test [2] is H3K4 methylation in SH-SY5Y cells. Briefly: Western blot for dimethylated H3-K4 in SH-SY5Y cells. The test is classed as cell-based. The text has this:
B-actin was used as a loading control.
(Immunoblotting shows a protein as a band on a membrane.)

The next test addresses LSD1 (Homo sapiens, UniProt O60341). Briefly: LSD1 demethylase inhibition, Amplex Red peroxide/peroxidase-coupled assay with di-methylated H3-K4 peptide. The test is classed as biochemical. Also on record: purchased BPS Bioscience Inc. An excerpt: Compounds for use in the methods of the invention can be identified by their ability to inhibit LSD1. The ability of the compounds of the invention to inhibit LSD1 can be tested as follows. Human recombinant LSD1 protein was purchased from BPS Bioscience Inc. In order to monitor LSD1 enzymatic activity and/or its inhibition rate by our inhibitor(s) of interest, di-methylated H3-K4 peptide (Millipore) was chosen as a substrate. The demethylase activity was estimated, under aerobic conditions, by measuring the release of H2O2 produced during the catalytic process, using the Amplex® Red peroxide/peroxidase-coupled assay kit (Invitrogen).
Within the experiment, each concentration of inhibitor was tested in triplicate. […] The enzymatic reactions were set up in a 50 mM sodium phosphate, pH 7.4 buffer. […] The conversion of the Amplex® Red reagent to resorufin due to the presence of H2O2 in the assay, was monitored by fluorescence (excitation at 540 nm, emission at 590 nm) using a microplate reader (Infinite 200, Tecan). […]
The maximum demethylase activity of LSD1 was obtained in the absence of inhibitor and corrected for background fluorescence in the absence of LSD1. […]

Test [3] deals with T2, Human recombinant monoamine oxidase MAO-B (Homo sapiens, UniProt P27338).
T2 construct: purchased Sigma Aldrich
T2 sequence (P27338 1-520): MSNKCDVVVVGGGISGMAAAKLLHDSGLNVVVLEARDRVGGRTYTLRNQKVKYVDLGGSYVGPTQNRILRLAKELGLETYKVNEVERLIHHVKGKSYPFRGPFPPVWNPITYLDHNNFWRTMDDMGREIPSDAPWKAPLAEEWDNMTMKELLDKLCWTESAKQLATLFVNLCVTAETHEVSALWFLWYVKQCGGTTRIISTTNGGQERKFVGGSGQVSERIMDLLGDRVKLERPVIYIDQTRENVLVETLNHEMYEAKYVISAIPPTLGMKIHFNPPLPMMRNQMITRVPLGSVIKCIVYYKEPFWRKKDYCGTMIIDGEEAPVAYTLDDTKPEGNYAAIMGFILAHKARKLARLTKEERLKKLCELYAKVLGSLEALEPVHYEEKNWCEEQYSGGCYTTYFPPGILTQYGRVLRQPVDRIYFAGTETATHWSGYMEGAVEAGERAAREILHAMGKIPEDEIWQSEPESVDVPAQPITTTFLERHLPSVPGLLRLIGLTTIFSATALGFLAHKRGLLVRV
Briefly: MAO-B inhibition, kynuramine fluorescence assay. The format is biochemical.
Description: as §1, §2, §3, §4

The mark [4] stands for this setting: 10 mg/kg i.p. once daily x 5 days.
Setting [5] is: 20 mg/kg i.p. once daily x 5 days.
Where [6] appears, read: 40 mg/kg i.p. once daily x 5 days.

pIC50: −log10 of the molar value.

With `CN1CCN(C(=O)CN[C@H]2C[C@@H]2c2ccc(OCc3ccccc3)cc2)CC1` (racemic) [Compound 3], the “% platelet vs. Vehicle” value is 46% with platelets (1 mg/kg i.p. once daily x 5 days), 16% in the test on platelets (3 mg/kg i.p. once daily x 5 days) and 5% in the test with platelets (setting [4]).

In the case of `NC(=O)CN[C@@H]1C[C@H]1c1ccc(OCc2ccccc2)cc1` (relative stereo) [Compound 1], the pIC50 (as a rule, −log10 of the IC50, conventionally taken in molar units) in test [1] was under 5.70; against LSD1, over 6.70. In addition, the “H3K4 methylation (western blot)” value in test [2] (SH-SY5Y cells grown with compound for 1, 2 and 3 days, Dual-1 at 100 μM (FIG. 3)) is given as “increases H3K4 methylation in cells in a time dependent manner”. The “potency at increasing global dimethylated H3K4 levels as compared to tranylcypromine” value in test [2] (SH-SY5Y cells, 1, 2 and 3 days) is given as at least 10 fold. The “% platelet vs. Vehicle” value with platelets (5 mg/kg i.p. once daily x 5 days) was determined as 91%; in the test on platelets (setting [4]), 66%; in the test with platelets (setting [5]) it was 55%; in the test on platelets (setting [6]), 34%.

In the case of `N[C@H]1CCN(CCN[C@H]2C[C@@H]2c2ccc(-c3cccc(C(F)(F)F)c3)cc2)C1` [Compound 5], the values for the pIC50 (in test [1]; in test [3]; against LSD1) were under 6.30, under 6.00 and over 6.70, respectively.

On to `N[C@H]1CC1c1ccc(-c2cccc(O)c2)cc1` (stereo partly shown) [Compound 6], for which the “% platelet vs. Vehicle” value in the test on platelets (17 mg/kg i.p. once daily x 5 days) was 56%; in the test with platelets (34 mg/kg i.p. once daily x 5 days), 46%; in the test on platelets (52 mg/kg i.p. once daily x 5 days) it was 63%.

Regarding `CS(=O)(=O)Nc1cccc(-c2ccc(C3C[C@@H]3N)cn2)c1` (stereo partly shown) [Compound 7], the “% platelet vs. Vehicle” value in the test with platelets (setting [5]) came out at 68%; in the test on platelets (setting [6]), 44%.
